Test results reported in patent US6972178B1, “Drug screening using a proline-rich nuclear receptor co-regulatory protein/nuclear receptor co-expression system” (City of Hope, priority 1999, dated 2005).

Legend:
Test in all cases: Yeast two-hybrid assay (HIS3 / β-galactosidase reporter)
[1] = molecular target: T1, ERRα1 (Homo sapiens, UniProt P11474); type: cell-based; settings: no ligand
T1 construct: inserting the PCR-amplified ERRA-1 coding region into pGBT9 through an EcoRI site; expressed in transfected cells; host or cells: yeast Y187 x CG1945 diploids
T1 sequence (P11474 1-423): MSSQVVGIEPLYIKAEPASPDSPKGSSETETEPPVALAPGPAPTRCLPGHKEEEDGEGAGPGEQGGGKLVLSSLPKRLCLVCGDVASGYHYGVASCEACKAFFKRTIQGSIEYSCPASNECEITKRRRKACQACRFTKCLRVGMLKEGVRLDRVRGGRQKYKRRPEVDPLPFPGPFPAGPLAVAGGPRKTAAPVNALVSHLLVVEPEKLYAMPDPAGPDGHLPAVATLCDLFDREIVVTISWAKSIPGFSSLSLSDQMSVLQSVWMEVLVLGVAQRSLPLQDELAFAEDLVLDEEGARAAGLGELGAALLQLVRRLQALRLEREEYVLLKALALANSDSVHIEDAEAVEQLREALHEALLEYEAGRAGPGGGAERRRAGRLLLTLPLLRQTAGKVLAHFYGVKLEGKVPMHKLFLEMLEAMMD
Protocol: (§1) The protein-protein interactions between the full-length PNRC or PNRC fragments and SF1, ERRα1, and several other nuclear receptors were analyzed by yeast two-hybrid assays. The yeast two-hybrid assay was used to test if PNRC also interacts with other members of the nuclear receptor superfamily. pGBT9-ERRα-1 yeast expression plasmid was prepared by inserting the PCR-amplified ERRA-1 coding region into pGBT9 through an EcoRI site. To construct the plasmid pGBT9-ER274-595, the coding sequence from amino acids 274 to 595 (LBD) of ERα was amplified by PCR with the sense primer 5′-[…]-3′ (SEQ ID NO:1) and antisense primer 5′-[…]-3′ (SEQ ID NO:2) and cloned into the EcoRI/,SalI site of the pGBT9 yeast expression plasmid. pSG5-GRIP1 and several yeast expression plasmids coding for fusion proteins of Gal4-DBD and HBDs of AR, GR, PR, TR, RAR, and RXR in pGBT9 vector were kindly provided by Dr. Michael R. Stallcup (University of Southern California, Los Angeles, Calif.) (Voegel et al., 1996; Hong et al., 1996; Ding et al., 1998). The yeast mating approach was used in yeast two-hybrid assays to study protein-protein interactions as described in Clontech's protocol. Briefly, pGBT9 (DNA-BD vector only), pGBT9/target plasnmids for SF1, ERRα1, and other HBDs of nuclear receptors, and DNA-BD/control plasmids (as negative control) were introduced into the reporter strain Y187, and the AD vector alone or wild type PNRC and its deleted fragments-containing pACT2 derivatives were used to transform yeast strain CG1945. The yeast mating was performed by picking one colony from each type and growing both colonies in liquid YPD medium with or without a proper ligand at the following concentrations: 100 nM of estradiol for ER; 10 μM of deoxycorticosterone for GR; 100 nM of dihydrotestosterone for AR; 500 nM of progesterone for PR; 10 μM of T3 for TR; 10 μM of all-trans-retinoic acid for RAR; and 10 μM of 9-cis-retinoic acid for RXR. The same amount of an aliquot of the mating culture was spread on both SD/-Leu/-Trp plates to select diploid strains bearing both plasmids and SD/-Leu/-Trp/-His/+3-AT plates to score the growth of the diploid cells that express the two interacting target proteins. The His3 positive colonies were further analyzed for β-galactosidase activity by liquid β-galactosidase activity measurement as essentially described in the protocol.
(§2) Yeast strains Y187 expressing the Gal4DB fusion to the nuclear receptors and CG1945expressing Gal4AD alone or Gal4AD-PNRC fusion protein were mated by co-culturing, and selected for the presence of both two-hybrid plasmids. The expression of interacting hybrid proteins in yeast diploids was analyzed to determine if there was induction of HIS3 expression as shown in FIG. 1A and LacZ expression as shown in FIGS. 1B and 1C. […] As shown in FIGS. 1A-C, PNRC also interacted specifically with all seven nuclear receptor HBDs, including ER, AR, GR, TR, PR, RAR and RXR, and these interactions were completely ligand-dependent. […] However, no interactions occurred either between PNRC and an irrelevant protein such as human lamin C protein or between nuclear receptors and Gal4activation domain alone.

[2] = molecular target: T2, ER (ERα LBD, aa 274-595) (Homo sapiens, UniProt P03372); type: cell-based; settings: 100 nM of estradiol
T2 construct: expressed in transfected cells; host or cells: yeast Y187 x CG1945 diploids
T2 sequence (P03372 274-595): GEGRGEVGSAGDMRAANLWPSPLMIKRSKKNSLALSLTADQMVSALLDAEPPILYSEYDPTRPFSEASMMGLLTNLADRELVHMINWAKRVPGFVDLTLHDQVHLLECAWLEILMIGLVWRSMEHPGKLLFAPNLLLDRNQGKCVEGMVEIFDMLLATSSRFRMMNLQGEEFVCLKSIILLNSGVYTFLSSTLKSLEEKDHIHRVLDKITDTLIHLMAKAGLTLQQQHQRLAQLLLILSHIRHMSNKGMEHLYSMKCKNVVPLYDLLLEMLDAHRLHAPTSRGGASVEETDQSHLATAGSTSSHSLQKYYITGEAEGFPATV
T2 sequence (Q12796 whole entry partner, the tested form may be a part): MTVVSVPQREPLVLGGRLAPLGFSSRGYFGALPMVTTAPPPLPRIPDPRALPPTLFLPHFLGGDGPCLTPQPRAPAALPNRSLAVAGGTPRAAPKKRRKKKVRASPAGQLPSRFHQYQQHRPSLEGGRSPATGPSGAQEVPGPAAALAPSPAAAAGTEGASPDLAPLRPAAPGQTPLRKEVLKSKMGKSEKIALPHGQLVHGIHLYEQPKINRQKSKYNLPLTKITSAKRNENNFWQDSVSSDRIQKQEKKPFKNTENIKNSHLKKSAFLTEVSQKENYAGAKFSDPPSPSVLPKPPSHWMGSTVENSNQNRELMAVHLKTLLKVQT
Protocol: as §1, §2

[3] = tested on: GR HBD; type: cell-based; settings: 10 μM of deoxycorticosterone
Protocol: as §1, §2

[4] = tested on: TR HBD; type: cell-based; settings: 10 μM of T3
Protocol: as §1, §2

[5] = molecular target: T3, AR HBD (Homo sapiens, UniProt P10275); type: cell-based; settings: 100 nM of dihydrotestosterone
T3 construct: fusion proteins of Gal4-DBD and HBDs of AR, GR, PR, TR, RAR, and RXR in pGBT9 vector; expressed in transfected cells; host or cells: yeast Y187 x CG1945 diploids; plasmid a gift of M. R. Stallcup
T3 sequence (P10275 669-900 limits assumed): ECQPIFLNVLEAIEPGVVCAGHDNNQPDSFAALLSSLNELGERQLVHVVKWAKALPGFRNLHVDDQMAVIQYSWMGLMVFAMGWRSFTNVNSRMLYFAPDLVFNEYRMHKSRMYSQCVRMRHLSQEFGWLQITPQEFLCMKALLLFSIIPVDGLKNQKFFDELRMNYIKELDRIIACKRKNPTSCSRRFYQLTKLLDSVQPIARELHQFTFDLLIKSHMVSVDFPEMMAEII
T3 sequence (Q12796 whole entry partner, the tested form may be a part): as the sequence (Q12796 whole entry partner, the tested form may be a part) above
Protocol: as §1, §2

[6] = tested on: PR HBD; type: cell-based; settings: 500 nM of progesterone
PR HBD, sequence (P06401 679-933 limits assumed): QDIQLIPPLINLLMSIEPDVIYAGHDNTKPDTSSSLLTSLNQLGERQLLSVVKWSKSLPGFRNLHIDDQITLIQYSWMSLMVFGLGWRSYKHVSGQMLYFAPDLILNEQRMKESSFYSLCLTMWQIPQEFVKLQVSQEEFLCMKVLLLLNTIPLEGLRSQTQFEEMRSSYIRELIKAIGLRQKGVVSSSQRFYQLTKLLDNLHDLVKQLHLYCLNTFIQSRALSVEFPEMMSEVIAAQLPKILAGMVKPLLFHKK
Protocol: as §1, §2

[7] = tested on: RAR HBD; type: cell-based; settings: 10 μM of all-trans-retinoic acid
Protocol: as §1, §2

[8] = tested on: RXR HBD; type: cell-based; settings: 10 μM of 9-cis-retinoic acid
Protocol: as §1, §2

[9] = molecular target: SF1 (Bos taurus, UniProt Q04752); type: cell-based, bovine; parameters: The coding region for the wild type bovine SF1 was first subcloned into a yeast expression vector, pGBT9; expressed in transfected cells; host or cells: yeast (Y187, or Y187 x CG1945 diploids); settings: no ligand
SF1, sequence (Q04752 whole entry): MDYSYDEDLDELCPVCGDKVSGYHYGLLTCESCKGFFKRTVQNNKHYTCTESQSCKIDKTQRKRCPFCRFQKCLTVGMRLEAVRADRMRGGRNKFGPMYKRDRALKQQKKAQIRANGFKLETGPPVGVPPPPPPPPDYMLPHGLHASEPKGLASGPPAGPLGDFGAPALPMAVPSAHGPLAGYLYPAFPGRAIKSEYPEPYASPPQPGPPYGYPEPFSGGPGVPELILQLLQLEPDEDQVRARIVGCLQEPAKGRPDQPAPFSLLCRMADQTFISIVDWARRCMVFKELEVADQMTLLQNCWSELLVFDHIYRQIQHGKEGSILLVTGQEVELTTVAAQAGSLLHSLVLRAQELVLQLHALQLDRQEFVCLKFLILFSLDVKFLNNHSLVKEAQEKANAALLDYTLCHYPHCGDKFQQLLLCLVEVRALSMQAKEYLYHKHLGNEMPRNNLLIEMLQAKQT
Protocol: as §1, §2

“PNRC: proline-rich nuclear receptor co-regulatory protein, 327 aa, SEQ ID NO:8, nuclear receptor coactivator” was tested, and the “interaction with ERRα1” value [1] was “interacted with orphan receptors SF1 and ERRα1 in the absence of any added activator or ligand”, the “interaction with ER” value [2] was “only weak interactions were detected” and the “interaction with GR” value [3] was “only weak interactions were detected”. For the same substance, the “interaction with TR” value [4] was “interacts strongly”, the “interaction with AR” value [5] was “only weak interactions were detected” and the “interaction with PR” value [6] was “interacts strongly”. The “interaction with RAR” value [7] was “only weak interactions were detected”, the “interaction with RXR” value [8] was “interacts strongly” and the “interaction with SF1” value [9] was “interacted with orphan receptors SF1 and ERRα1 in the absence of any added activator or ligand”.
